Experimental data as given in ChEMBL document CHEMBL5338751, “Discovery of the First-in-Class Intestinal Restricted FXR and FABP1 Dual Modulator ZLY28 for the Treatment of Nonalcoholic Fatty Liver Disease” (J Med Chem, 2023).
Active and inactive are the calls of the source. No cut-off for these calls is given here.

What was measured:
[1] = biological target: Fatty acid-binding protein, adipocyte (Homo sapiens, UniProt P15090); test: Displacement of 8-anilino-1-naphthalene-sulfonic acid from FABP4 (unknown origin) incubated for 3 mins by fluorescence based assay
[2] = Subacute toxicity in ICR mouse assessed as changes in serum ALT level at 500 mg/kg/day, po administered for 14 days; type: organism-based; conditions: in vivo, 336 h, time 14 day
[3] = tested on: Mus musculus; test: Anti-NASH activity in western diet and CCl4-induced nonalcoholic steatohepatitis C57BL/6 mouse assessed as downregulation of TNFalpha expression level at 20 mg/kg, po administered for 12 weeks starting from week 8 and change in dose for every 5 days by ELISA; type: functional, organism-based; conditions: time 4.0 weeks
[4] = Subacute toxicity in ICR mouse assessed as changes in food intake at 500 mg/kg/day, po administered for 14 days; type: organism-based; conditions: in vivo, 336 h, time 14 day
[5] = Subacute toxicity in ICR mouse assessed as reduction in serum ALP level at 500 mg/kg/day, po administered for 14 days; type: organism-based; conditions: in vivo, 336 h, time 14 day
[6] = tested on: Mus musculus; test: Anti-NASH activity in western diet and CCl4-induced nonalcoholic steatohepatitis C57BL/6 mouse assessed as alleviation of lobular inflammation at 20 mg/kg, po administered for 12 weeks starting from week 8 and change in dose for every 5 days; type: functional, organism-based; conditions: time 4.0 weeks
[7] = biological target: T1, Bile acid receptor (Mus musculus) (UniProt Q60641); test: In vivo activation of FXR pathway in western diet and CCl4-induced nonalcoholic steatohepatitis C57BL/6 mouse model assessed as downregulation of CYP7A1 mRNA level in […] at 20 mg/kg, po administered for 12 weeks starting from week 8 and change in dose for every 5 days; type: functional, organism-based; conditions: time 4.0 weeks
T1 sequence (whole entry): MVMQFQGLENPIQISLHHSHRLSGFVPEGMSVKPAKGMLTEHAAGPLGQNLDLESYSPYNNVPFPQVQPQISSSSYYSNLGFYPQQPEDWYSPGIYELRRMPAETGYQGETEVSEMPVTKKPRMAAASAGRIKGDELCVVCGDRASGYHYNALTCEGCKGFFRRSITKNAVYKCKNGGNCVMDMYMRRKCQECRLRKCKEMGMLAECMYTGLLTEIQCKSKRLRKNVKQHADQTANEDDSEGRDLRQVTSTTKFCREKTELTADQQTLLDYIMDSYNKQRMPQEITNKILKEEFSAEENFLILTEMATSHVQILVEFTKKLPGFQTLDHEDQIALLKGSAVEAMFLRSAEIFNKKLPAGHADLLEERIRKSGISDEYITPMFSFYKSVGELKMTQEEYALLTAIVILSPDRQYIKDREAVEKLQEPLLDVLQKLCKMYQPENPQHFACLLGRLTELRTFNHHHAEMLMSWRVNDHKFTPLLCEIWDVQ

[8] = biological target: T2, Peroxisome proliferator-activated receptor alpha (Homo sapiens, UniProt Q07869); test: Inhibition of pBIND-PPARalpha (unknown origin) transfected in HepG2 cells incubated for 18 hrs in presence of […] by dual luciferase reporter assay; type: cell-based
T2 sequence (Q07869 whole entry): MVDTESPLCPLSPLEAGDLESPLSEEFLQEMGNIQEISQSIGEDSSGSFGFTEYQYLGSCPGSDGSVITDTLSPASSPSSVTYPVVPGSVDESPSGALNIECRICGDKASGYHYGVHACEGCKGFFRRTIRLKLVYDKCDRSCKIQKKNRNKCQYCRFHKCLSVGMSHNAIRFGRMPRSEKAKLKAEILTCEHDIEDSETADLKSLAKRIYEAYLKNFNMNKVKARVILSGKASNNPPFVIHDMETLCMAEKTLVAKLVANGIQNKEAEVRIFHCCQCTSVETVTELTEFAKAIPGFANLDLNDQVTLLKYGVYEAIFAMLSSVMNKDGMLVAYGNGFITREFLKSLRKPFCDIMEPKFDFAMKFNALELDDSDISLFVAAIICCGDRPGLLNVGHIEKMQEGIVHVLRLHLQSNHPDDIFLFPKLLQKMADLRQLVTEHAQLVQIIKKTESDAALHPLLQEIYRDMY

[9] = Metabolic stability in mouse liver microsomes assessed as parent compound remaining incubated for 1 hr by LC-MS analysis; type: ADME, Microsome; conditions: read-out: Stability
[10] = Inhibition of PPARbeta/delta (unknown origin) transfected in HepG2 cells incubated for 18 hrs in presence of GW0742 by dual luciferase reporter assay; conditions: Homo sapiens, HepG2, 18 h
[11] = biological target: Vitamin D3 receptor (Homo sapiens, UniProt P11473); test: Activation of VP16-fused VDR-LBD (unknown origin) incubated for 18 hrs in presence of substrate by luciferase assay
[12] = Metabolic stability in rhesus monkey liver microsomes assessed as parent compound remaining incubated for 1 hr by LC-MS analysis; type: ADME, Macaca mulatta, Microsome; conditions: read-out: Stability
[13] = Subacute toxicity in ICR mouse assessed as changes in organ to body weight ratio at 500 mg/kg/day, po administered for 14 days; type: organism-based; conditions: in vivo, 336 h, time 14 day
[14] = Ratio of drug level in ileum to plasma in C57BL/6 mouse at 20 mg/kg, po administered for 5 days and measured after 1 hr post final dose by LC-MS analysis
[15] = Metabolic stability in Beagle dog liver microsomes assessed as parent compound remaining incubated for 1 hr by LC-MS analysis; type: ADME, Canis lupus familiaris, Microsome; conditions: read-out: Stability
[16] = biological target: Androgen receptor (Homo sapiens, UniProt P10275); test: Activation of Gal-DBD and NHRLBD fused AR (unknown origin) transfected in African green monkey CV-1 cells by luciferase reporter assay; type: cell-based
[17] = tested on: Mus musculus; test: Anti-NASH activity in western diet and CCl4-induced nonalcoholic steatohepatitis C57BL/6 mouse assessed as downregulation of F4/80 expression level at 20 mg/kg, po administered for 12 weeks starting from week 8 and change in dose for every 5 days; type: functional, organism-based; conditions: time 4.0 weeks
[18] = biological target: Retinoic acid receptor alpha (Homo sapiens, UniProt P10276); test: Activation of Gal-DBD and NHRLBD fused RARalpha (unknown origin) transfected in African green monkey CV-1 cells by luciferase reporter assay; type: cell-based
[19] = Drug concentration in C57BL/6 mouse liver at 20 mg/kg, po administered for 5 days and measured after 1 hr post final dose by LC-MS analysis; type: ADME, organism-based; conditions: time 5 day, read-out: Ct
[20] = Drug concentration in C57BL/6 mouse ileum at 20 mg/kg, po administered for 5 days and measured after 1 hr post final dose by LC-MS analysis; type: ADME, organism-based; conditions: time 5 day, read-out: Ct
[21] = biological target: G-protein coupled bile acid receptor 1 (Homo sapiens, UniProt Q8TDU6); test: Activation of TGR5 (unknown origin) transfected in human NCI-H716 cells assessed as increase in cAMP production incubated for 24 hrs by HTR-FRET assay; type: functional, cell-based
[22] = biological target: Mineralocorticoid receptor (Homo sapiens, UniProt P08235); test: Activation of Gal-DBD and NHRLBD fused MR (unknown origin) transfected in African green monkey CV-1 cells by luciferase reporter assay; type: cell-based
[23] = Subacute toxicity in ICR mouse assessed as reduction in serum TBIL level at 500 mg/kg/day, po administered for 14 days; type: organism-based; conditions: in vivo, 336 h, time 14 day
[24] = biological target: Retinoic acid receptor gamma (Homo sapiens, UniProt P13631); test: Activation of Gal-DBD and NHRLBD fused RARgamma (unknown origin) transfected in African green monkey CV-1 cells by luciferase reporter assay; type: cell-based
Chain of Retinoic acid receptor gamma (P13631 whole entry, the tested form may be a part): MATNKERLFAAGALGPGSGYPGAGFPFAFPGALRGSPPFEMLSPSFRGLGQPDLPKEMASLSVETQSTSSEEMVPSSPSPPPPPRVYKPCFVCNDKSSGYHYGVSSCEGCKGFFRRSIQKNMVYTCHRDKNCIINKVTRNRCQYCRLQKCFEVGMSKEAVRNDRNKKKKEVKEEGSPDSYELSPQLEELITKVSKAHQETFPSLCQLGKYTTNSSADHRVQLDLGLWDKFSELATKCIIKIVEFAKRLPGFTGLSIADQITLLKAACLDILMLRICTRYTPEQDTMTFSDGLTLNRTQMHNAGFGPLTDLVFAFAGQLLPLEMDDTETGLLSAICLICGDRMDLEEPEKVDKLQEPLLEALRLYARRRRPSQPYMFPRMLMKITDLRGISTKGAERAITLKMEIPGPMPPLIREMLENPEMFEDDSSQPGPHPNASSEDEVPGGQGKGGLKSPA

Chain of G-protein coupled bile acid receptor 1 (Q8TDU6 whole entry, the tested form may be a part): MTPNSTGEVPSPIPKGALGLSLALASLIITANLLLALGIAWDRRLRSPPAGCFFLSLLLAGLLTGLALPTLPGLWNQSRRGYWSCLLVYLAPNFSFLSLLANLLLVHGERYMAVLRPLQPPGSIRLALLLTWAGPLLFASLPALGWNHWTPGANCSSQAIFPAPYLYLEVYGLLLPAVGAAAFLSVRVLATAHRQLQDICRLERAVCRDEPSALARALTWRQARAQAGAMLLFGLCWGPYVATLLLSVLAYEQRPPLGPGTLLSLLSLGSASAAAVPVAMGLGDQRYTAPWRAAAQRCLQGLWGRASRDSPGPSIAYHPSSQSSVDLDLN
Chain of Fatty acid-binding protein, adipocyte (P15090 whole entry): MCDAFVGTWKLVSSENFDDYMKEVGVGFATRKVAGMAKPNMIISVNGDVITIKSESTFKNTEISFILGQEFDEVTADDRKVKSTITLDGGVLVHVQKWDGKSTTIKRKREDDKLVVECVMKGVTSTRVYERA
Chain of Androgen receptor (P10275 whole entry, the tested form may be a part): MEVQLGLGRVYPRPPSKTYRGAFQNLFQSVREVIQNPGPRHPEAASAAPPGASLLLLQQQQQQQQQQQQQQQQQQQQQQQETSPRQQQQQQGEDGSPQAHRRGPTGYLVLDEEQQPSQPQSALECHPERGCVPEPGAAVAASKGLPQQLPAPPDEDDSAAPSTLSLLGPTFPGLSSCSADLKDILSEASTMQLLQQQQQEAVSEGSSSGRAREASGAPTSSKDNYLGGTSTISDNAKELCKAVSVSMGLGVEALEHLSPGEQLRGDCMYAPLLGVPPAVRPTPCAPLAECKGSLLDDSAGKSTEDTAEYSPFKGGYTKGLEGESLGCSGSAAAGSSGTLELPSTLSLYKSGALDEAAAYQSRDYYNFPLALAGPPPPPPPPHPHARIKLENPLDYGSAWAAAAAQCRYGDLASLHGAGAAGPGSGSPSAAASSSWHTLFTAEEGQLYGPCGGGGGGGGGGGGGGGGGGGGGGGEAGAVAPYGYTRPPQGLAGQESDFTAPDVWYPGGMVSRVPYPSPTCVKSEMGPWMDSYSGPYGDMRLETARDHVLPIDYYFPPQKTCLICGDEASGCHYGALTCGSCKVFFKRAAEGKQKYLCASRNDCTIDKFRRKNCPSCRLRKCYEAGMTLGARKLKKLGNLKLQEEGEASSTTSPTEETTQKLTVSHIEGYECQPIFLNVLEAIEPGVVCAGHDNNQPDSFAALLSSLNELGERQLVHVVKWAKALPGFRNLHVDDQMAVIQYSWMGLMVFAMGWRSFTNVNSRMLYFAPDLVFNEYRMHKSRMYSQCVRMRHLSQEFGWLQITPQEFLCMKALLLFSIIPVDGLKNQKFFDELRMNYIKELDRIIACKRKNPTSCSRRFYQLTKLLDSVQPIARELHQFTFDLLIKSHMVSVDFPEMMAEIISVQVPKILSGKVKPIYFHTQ
Chain of Retinoic acid receptor alpha (P10276 whole entry, the tested form may be a part): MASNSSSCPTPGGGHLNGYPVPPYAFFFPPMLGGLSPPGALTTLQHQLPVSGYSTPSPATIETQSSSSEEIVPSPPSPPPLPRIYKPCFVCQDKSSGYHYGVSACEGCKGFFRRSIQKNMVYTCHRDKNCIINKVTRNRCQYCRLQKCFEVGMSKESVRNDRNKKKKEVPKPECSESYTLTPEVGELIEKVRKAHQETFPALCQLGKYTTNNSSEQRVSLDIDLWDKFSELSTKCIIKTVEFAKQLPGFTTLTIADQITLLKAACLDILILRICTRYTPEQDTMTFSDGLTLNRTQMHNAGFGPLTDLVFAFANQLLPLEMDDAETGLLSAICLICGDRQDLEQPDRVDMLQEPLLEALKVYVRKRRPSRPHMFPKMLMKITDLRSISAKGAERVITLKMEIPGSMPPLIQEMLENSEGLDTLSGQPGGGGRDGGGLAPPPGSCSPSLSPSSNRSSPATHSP
Chain of Vitamin D3 receptor (P11473 whole entry, the tested form may be a part): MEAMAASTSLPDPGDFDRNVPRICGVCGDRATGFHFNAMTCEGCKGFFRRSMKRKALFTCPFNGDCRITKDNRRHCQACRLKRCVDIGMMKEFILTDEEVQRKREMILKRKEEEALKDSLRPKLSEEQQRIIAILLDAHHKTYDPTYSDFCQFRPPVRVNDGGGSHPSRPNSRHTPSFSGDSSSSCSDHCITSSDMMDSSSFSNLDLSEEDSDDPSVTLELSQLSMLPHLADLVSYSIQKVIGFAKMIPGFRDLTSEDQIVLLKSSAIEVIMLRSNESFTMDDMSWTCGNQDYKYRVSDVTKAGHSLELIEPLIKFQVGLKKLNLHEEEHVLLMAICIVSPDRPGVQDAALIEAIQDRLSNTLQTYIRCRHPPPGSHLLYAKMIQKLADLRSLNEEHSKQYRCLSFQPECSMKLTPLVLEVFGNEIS
Chain of Mineralocorticoid receptor (P08235 whole entry, the tested form may be a part): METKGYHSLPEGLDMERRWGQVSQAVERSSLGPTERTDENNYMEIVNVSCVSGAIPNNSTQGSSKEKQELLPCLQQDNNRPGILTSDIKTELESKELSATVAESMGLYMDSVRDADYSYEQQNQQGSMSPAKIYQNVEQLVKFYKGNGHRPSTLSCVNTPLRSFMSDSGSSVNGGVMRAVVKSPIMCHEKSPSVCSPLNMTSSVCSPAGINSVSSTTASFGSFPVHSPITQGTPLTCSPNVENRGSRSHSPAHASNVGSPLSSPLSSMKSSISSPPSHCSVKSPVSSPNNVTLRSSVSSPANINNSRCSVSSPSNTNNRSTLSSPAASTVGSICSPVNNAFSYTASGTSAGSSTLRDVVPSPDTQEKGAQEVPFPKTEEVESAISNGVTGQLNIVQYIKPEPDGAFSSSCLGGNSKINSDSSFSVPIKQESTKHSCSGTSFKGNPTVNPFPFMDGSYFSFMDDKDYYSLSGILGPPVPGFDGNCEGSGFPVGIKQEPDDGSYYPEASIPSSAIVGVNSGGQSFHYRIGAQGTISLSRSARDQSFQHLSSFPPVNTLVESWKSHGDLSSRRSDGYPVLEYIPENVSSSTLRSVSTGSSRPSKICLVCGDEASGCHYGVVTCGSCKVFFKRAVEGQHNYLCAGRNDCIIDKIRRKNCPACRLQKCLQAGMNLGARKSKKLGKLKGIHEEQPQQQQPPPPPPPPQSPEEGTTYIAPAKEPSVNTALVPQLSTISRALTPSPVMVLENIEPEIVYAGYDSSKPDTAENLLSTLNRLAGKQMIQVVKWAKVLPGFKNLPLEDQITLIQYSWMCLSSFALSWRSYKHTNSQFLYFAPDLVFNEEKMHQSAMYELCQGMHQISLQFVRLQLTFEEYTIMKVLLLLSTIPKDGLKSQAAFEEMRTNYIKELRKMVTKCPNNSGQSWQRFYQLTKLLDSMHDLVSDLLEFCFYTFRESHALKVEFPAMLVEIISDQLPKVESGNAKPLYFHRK

**Q.** For O=C(O)C1(c2cccc(-c3ccc(OCc4c(-c5c(Cl)cccc5Cl)noc4C4CC4)cc3)c2)CC1, which IC50 [1] is on record?
**A.** 6.3 µM

**Q.** What about the Activity [2] of the same compound?
**A.** Non-Toxic

**Q.** And the Activity [3]?
**A.** Active

**Q.** What about the Activity [4] of the same compound?
**A.** Non-Toxic

**Q.** What about the Activity [5] of the same compound?
**A.** Non-Toxic

**Q.** And the Activity [6]?
**A.** Active

**Q.** What about the Activity [7] of the same compound?
**A.** Active

**Q.** And the IC50 [8]?
**A.** > 10 µM

**Q.** And the remaining at 1 h [9]?
**A.** 64.3%

**Q.** What about the IC50 [10] of the same compound?
**A.** > 10 µM

**Q.** And the EC50 [11]?
**A.** > 10 µM

**Q.** And the remaining at 1 h [12]?
**A.** 71%

**Q.** What about the Activity [13] of the same compound?
**A.** Non-Toxic

**Q.** What about the Kp at 120 h [14] of the same compound?
**A.** 104

**Q.** What about the remaining at 1 h [15] of the same compound?
**A.** 57.4%

**Q.** And the EC50 [16]?
**A.** > 10 µM

**Q.** What about the Activity [17] of the same compound?
**A.** Active

**Q.** And the EC50 [18]?
**A.** > 10 µM

**Q.** What about the concentration at 120 h [19] of the same compound?
**A.** 37.2 ng/g

**Q.** And the concentration at 120 h [20]?
**A.** 996 ng/g

**Q.** What about the EC50 [21] of the same compound?
**A.** > 10 µM

**Q.** What about the EC50 [22] of the same compound?
**A.** > 10 µM

**Q.** And the Activity [23]?
**A.** Non-Toxic

**Q.** And the EC50 [24]?
**A.** > 10 µM
